# Assays:
# [1] = system: A549; experiment: Antiproliferative activity against human A549 cells assessed as cell growth at 10 uM incubated for 72 hrs by MTT assay relative to untreated control; type: functional; conditions: A549, 72 h, read-out: Activity
# [2] = Antiproliferative activity against human IGR-39 cells assessed as cell growth at 10 uM incubated for 72 hrs by MTT assay relative to untreated control; type: functional; conditions: IGR-39, 72 h, read-out: Activity
# [3] = system: U-87 MG; experiment: Antiproliferative activity against human U87 cells assessed as cell growth at 10 uM incubated for 72 hrs by MTT assay relative to untreated control; type: functional, U-87MG ATCC; conditions: read-out: Activity
# [4] = system: MDA-MB-231; experiment: Antiproliferative activity against human MDA-MB-231 cells assessed as cell growth at 10 uM incubated for 72 hrs by MTT assay relative to untreated control; type: functional; conditions: MDA-MB-231, 72 h, read-out: Activity
# [5] = system: MCF7; experiment: Antiproliferative activity against human MCF7 cells assessed as cell growth at 10 uM incubated for 72 hrs by MTT assay relative to untreated control; type: functional; conditions: MCF7, 72 h, read-out: Activity
# [6] = system: BT-474; experiment: Antiproliferative activity against human BT474 cells assessed as cell growth at 10 uM incubated for 72 hrs by MTT assay relative to untreated control; type: functional; conditions: BT-474, 72 h, read-out: Activity
# [7] = system: BXPC-3; experiment: Antiproliferative activity against human BxPC3 cells assessed as cell growth at 10 uM incubated for 72 hrs by MTT assay relative to untreated control; type: functional; conditions: BXPC-3, 72 h, read-out: Activity
# [8] = system: SK-OV-3; experiment: Antiproliferative activity against human SKOV3 cells assessed as cell growth at 10 uM incubated for 72 hrs by MTT assay relative to untreated control; type: functional; conditions: SK-OV-3, 72 h, read-out: Activity
# [9] = system: NCI-H1299; experiment: Antiproliferative activity against human NCI-H1299 cells assessed as cell growth at 10 uM incubated for 72 hrs by MTT assay relative to untreated control; type: functional; conditions: NCI-H1299, 72 h, read-out: Activity
# [10] = Antiproliferative activity against human NHFB cells assessed as cell growth at 10 uM incubated for 72 hrs by MTT assay relative to untreated control; type: cell-based; conditions: read-out: Activity
# [11] = system: A549; experiment: Antiproliferative activity against human A549 cells assessed as reduction in cell growth incubated for 72 hrs by MTT assay; type: functional, cell-based; conditions: A549, 72 h
# [12] = Antiproliferative activity against human IGR-39 cells assessed as reduction in cell growth incubated for 72 hrs by MTT assay; type: functional, cell-based; conditions: IGR-39, 72 h
# [13] = system: U-87 MG; experiment: Antiproliferative activity against human U87 cells assessed as reduction in cell growth incubated for 72 hrs by MTT assay; type: functional, cell-based, U-87MG ATCC
# [14] = system: MCF7; experiment: Antiproliferative activity against human MCF7 cells assessed as reduction in cell growth incubated for 72 hrs by MTT assay; type: functional, cell-based; conditions: MCF7, 72 h
# [15] = system: BXPC-3; experiment: Antiproliferative activity against human BxPC3 cells assessed as reduction in cell growth incubated for 72 hrs by MTT assay; type: functional, cell-based; conditions: BXPC-3, 72 h
# [16] = Antiproliferative activity against human NHFB cells assessed as reduction in cell growth incubated for 72 hrs by MTT assay; type: cell-based
# [17] = system: A549; experiment: Induction of apoptosis in human A549 cells at 0.5 times antiproliferative EC50 incubated for 72 hrs by Hoechst 33342 and propidium iodide staining based inverted fluorescent microscopy relative to untreated control; type: functional
# [18] = Induction of apoptosis in human IGR-39 cells at 0.5 times antiproliferative EC50 incubated for 72 hrs by Hoechst 33342 and propidium iodide staining based inverted fluorescent microscopy relative to untreated control; type: functional
# [19] = system: U-87 MG; experiment: Induction of apoptosis in human U87 cells at 0.5 times antiproliferative EC50 incubated for 72 hrs by Hoechst 33342 and propidium iodide staining based inverted fluorescent microscopy relative to untreated control; type: functional, U-87MG ATCC
# [20] = system: A549; experiment: Induction of necrosis in human A549 cells at 0.5 times antiproliferative EC50 incubated for 72 hrs by Hoechst 33342 and propidium iodide staining based inverted fluorescent microscopy relative to untreated control; type: functional
# [21] = Induction of necrosis in human IGR-39 cells at 0.5 times antiproliferative EC50 incubated for 72 hrs by Hoechst 33342 and propidium iodide staining based inverted fluorescent microscopy relative to untreated control; type: functional
# [22] = system: U-87 MG; experiment: Induction of necrosis in human U87 cells at 0.5 times antiproliferative EC50 incubated for 72 hrs by Hoechst 33342 and propidium iodide staining based inverted fluorescent microscopy relative to untreated control; type: functional, U-87MG ATCC
# [23] = system: BT-474; experiment: Antiproliferative activity against human BT474 cells assessed as reduction in cell growth incubated for 72 hrs by MTT assay; type: functional, cell-based; conditions: BT-474, 72 h
# [24] = system: SK-OV-3; experiment: Antiproliferative activity against human SKOV3 cells assessed as reduction in cell growth incubated for 72 hrs by MTT assay; type: functional, cell-based; conditions: SK-OV-3, 72 h
# [25] = system: NCI-H1299; experiment: Antiproliferative activity against human NCI-H1299 cells assessed as reduction in cell growth incubated for 72 hrs by MTT assay; type: functional, cell-based; conditions: NCI-H1299, 72 h
SMILES,growth at 10 µM [1] [%],growth at 10 µM [2] [%],growth at 10 µM [3] [%],growth at 10 µM [4] [%],growth at 10 µM [5] [%],growth at 10 µM [6] [%],growth at 10 µM [7] [%],growth at 10 µM [8] [%],growth at 10 µM [9] [%],"viability at 72 h, 10 µM [10] [%]",EC50 [14] [nM],EC50 [15] [nM],also measured
COc1ccc(C2CC(c3ccc4ccccc4c3)=NN2C2=NC(=O)/C(=C3/C(=O)Nc4ccc(C)cc43)S2)cc1 (configuration not stated),6.21,0.46,14.2,10.8,4.81,40.2,5.02,66.6,19.3,11.8,310,100,EC50 [11]: 180 nM; EC50 [12]: 140 nM; EC50 [13]: 230 nM; EC50 [16]: 150 nM; Activity [17]: 13.5 - 27%; Activity [18]: 13.5 - 27%; Activity [19]: 13.5 - 27%; Activity [20]: <1%; Activity [21]: <1%; Activity [22]: <1%
CCN(CC)CCNC(=O)c1c(C)[nH]c(/C=C2\C(=O)Nc3ccc(F)cc32)c1C [SUNITINIB],,,,,,,,,,,960,2500,EC50 [23]: 900 nM; EC50 [24]: 1360 nM; EC50 [25]: 1540 nM; EC50 [16]: 300 nM
COc1ccc(C2CC(c3ccc4ccccc4c3)=NN2C2=NC(=O)/C(=C3/C(=O)Nc4c(C)cc(C)cc43)S2)cc1 (configuration not stated),43.8,63.4,64.2,73,120,62.2,44.9,26.6,87.8,55.6,,,
COc1ccc(C2CC(c3ccc4ccccc4c3)=NN2C2=NC(=O)/C(=C3/C(=O)Nc4ccc(Cl)cc43)S2)cc1 (configuration not stated),3.84,1.3,1.59,6.87,3.81,24.2,5.62,6.69,9.76,14.4,70,60,EC50 [11]: 340 nM; EC50 [12]: 330 nM; EC50 [13]: 380 nM; EC50 [23]: 90 nM; EC50 [24]: 60 nM; EC50 [25]: 10 nM; Activity [17]: 13.5 - 27%; Activity [18]: 13.5 - 27%; Activity [19]: 13.5 - 27%; Activity [20]: <1%; Activity [21]: <1%; Activity [22]: <1%
COc1ccc(C2CC(c3cccs3)=NN2C2=NC(=O)/C(=C3/C(=O)Nc4ccc(C)cc43)S2)cc1 (configuration not stated),22.7,1.37,12.1,76.9,112,95,62.4,38.4,84,48.3,,,
COc1ccc(C2CC(c3cccs3)=NN2C2=NC(=O)/C(=C3/C(=O)Nc4ccc(OC)cc43)S2)cc1 (configuration not stated),62.5,98.6,44.9,99.3,120,98.4,67.6,49.5,85.9,64.4,,,
COc1ccc(C2CC(c3ccc4ccccc4c3)=NN2C2=NC(=O)/C(=C3/C(=O)Nc4c(Br)cccc43)S2)cc1 (configuration not stated),94.2,98.6,96.7,68.2,102,88.2,55.3,89.9,81,47.3,,,

# — ChEMBL document CHEMBL4339221, “Investigating the Anticancer Activity of Isatin/Dihydropyrazole Hybrids” (ACS Med Chem Lett, 2019)
